Several values for one entry are separate records, joined by “and”; a condition that tells them apart may be missing. Identical values can stand only once. Toxic doses and inconclusive results are not listed.
System: P388 leukemia ip, CD2F1 mice, survival T/C
Test: NCI In Vivo Anticancer Drug Screen. Data for tumor model P388 Leukemia (intraperitoneal) in CD2F1 (CDF1) mice
Conditions: endpoint: median survival time, higher = longer survival
How it was run: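 Mice carrying the transplanted tumor received test compound or vehicle. Survival was recorded in each group, and the value is the treated-group measurement divided by that of the vehicle-treated control group.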

[1] = dose: 50.0 mg/kg/injection, schedule: Q01DX005 (ip), vehicle: Klucel (hydroxypropylcellulose) (HPC)
[2] = dose: 100.0 mg/kg/injection, schedule: Q01DX005 (ip), vehicle: Klucel (hydroxypropylcellulose) (HPC)
[3] = dose: 200.0 mg/kg/injection, schedule: Q01DX005 (ip), vehicle: Klucel (hydroxypropylcellulose) (HPC)
[4] = dose: 50.0 mg/kg/injection, schedule: Q01DX005 (ip), vehicle: saline with Tween-80
[5] = dose: 100.0 mg/kg/injection, schedule: Q01DX005 (ip), vehicle: saline with Tween-80
[6] = dose: 25.0 mg/kg/injection, schedule: Q01DX009 (ip), vehicle: saline with Tween-80
[7] = dose: 100.0 mg/kg/injection, schedule: Q04DX003 (ip), vehicle: Klucel (hydroxypropylcellulose) (HPC)
[8] = dose: 200.0 mg/kg/injection, schedule: Q04DX003 (ip), vehicle: Klucel (hydroxypropylcellulose) (HPC)
[9] = dose: 400.0 mg/kg/injection, schedule: Q04DX003 (ip), vehicle: Klucel (hydroxypropylcellulose) (HPC)

In the case of `CCCCCCCCCCCCCCCC(=O)N(CCCN(C)C)C1CCC(N(CCCN(C)C)C(=O)CCCCCCCCCCCCCCC)CC1` (configuration not stated), the T/C (dose: 3.13 mg/kg/injection, schedule: Q01DX009 (ip), vehicle: saline sonified) is reported as 90 % of control, the T/C (dose: 6.25 mg/kg/injection, schedule: Q01DX009 (ip), vehicle: saline sonified) is reported as 90 % of control and the T/C (dose: 12.5 mg/kg/injection, schedule: Q01DX009 (ip), vehicle: saline sonified) is reported as 90 % of control.
For `COc1cccc2c1C(=O)c1c(O)c3c(c(O)c1C2=O)C/C(=N/O)CC3OC1CC(NC(=O)C(F)(F)F)C(O)C(C)O1` (configuration not stated), the T/C (dose: 1.56 mg/kg/injection, schedule: Q01DX009 (ip), vehicle: other) was 106 % of control, the T/C (dose: 3.13 mg/kg/injection, schedule: Q01DX009 (ip), vehicle: other) was 88 % of control and the T/C (dose: 6.25 mg/kg/injection, schedule: Q01DX009 (ip), vehicle: other) was 92 % of control. The T/C (dose: 12.5 mg/kg/injection, schedule: Q01DX009 (ip), vehicle: other) was 110 % of control.
In the case of `COc1cccc(C(=O)c2ccc(OC)cc2C(=O)O)c1`, the T/C [1] is reported as 95 % of control, the T/C [2] is reported as 101 % of control and the T/C [3] is reported as 97 % of control.
`C=C1C(=O)OC2C1C(OC(=O)/C(C)=C/C)CC1(C)C(=O)CCC(=C)C21` (configuration not stated) was tested, and the T/C (dose: 12.5 mg/kg/injection, schedule: Q01DX005 (ip), vehicle: Klucel (hydroxypropylcellulose) (HPC)) was 110 % of control, the T/C (dose: 25.0 mg/kg/injection, schedule: Q01DX005 (ip), vehicle: Klucel (hydroxypropylcellulose) (HPC)) was 104 % of control and 106 % of control and 107 % of control and the T/C [1] was 106 % of control and 109 % of control and 112 % of control. For the same molecule, the T/C [2] was 109 % of control, the T/C (dose: 150.0 mg/kg/injection, schedule: Q01DX005 (ip), vehicle: Klucel (hydroxypropylcellulose) (HPC)) was 107 % of control and the T/C [3] was 108 % of control and 111 % of control.
`Cn1c(=O)oc2cc(NC(N)=O)c(Cl)cc21` was tested, and the T/C [1] was 94 % of control, the T/C [2] was 90 % of control and the T/C [3] was 86 % of control.
With `O=C(NC(Cc1ccc(O)cc1)C(=O)N=Nc1c(O)[nH]c2ccccc12)c1ccccc1` (configuration not stated) the T/C (dose: 30.0 mg/kg/injection, schedule: Q01DX005 (ip), vehicle: saline with Tween-80) was 90 % of control, the T/C (dose: 60.0 mg/kg/injection, schedule: Q01DX005 (ip), vehicle: saline with Tween-80) was 87 % of control and 90 % of control and the T/C (dose: 120.0 mg/kg/injection, schedule: Q01DX005 (ip), vehicle: saline with Tween-80) was 90 % of control. The T/C (dose: 240.0 mg/kg/injection, schedule: Q01DX005 (ip), vehicle: saline with Tween-80) was 101 % of control.
In the case of `CN=C(NCCCOC)c1ccc(NC(=O)Nc2ccc(NC(=O)Nc3ccc(C(=NC)NCCCOC)cc3)cc2)cc1`, the T/C [1] is reported as 150 % of control.
For `CC1CCC2=C(C1)c1ccc(O)cc1OC2(C)C` (configuration not stated), the T/C [1] was 100 % of control, the T/C [2] was 96 % of control and the T/C [3] was 93 % of control.
For `C[N+](C)(C)CCNP(=O)(Oc1ccccc1)c1ccccc1` (configuration not stated), the T/C [4] was 103 % of control and the T/C [5] was 94 % of control.
With `CC1=CC2(C)OC(=O)N(c3ccccc3)C2N=C1` (configuration not stated) the T/C (dose: 50.0 mg/kg/injection, schedule: Q01DX009 (ip), vehicle: Klucel (hydroxypropylcellulose) (HPC)) was 111 % of control and the T/C (dose: 100.0 mg/kg/injection, schedule: Q01DX009 (ip), vehicle: Klucel (hydroxypropylcellulose) (HPC)) was 109 % of control.
With `O=C1C(N=Nc2ccccc2)Sc2nc3ccccc3n21` (configuration not stated) the T/C (dose: 60.0 mg/kg/injection, schedule: Q01DX005 (ip), vehicle: Klucel (hydroxypropylcellulose) (HPC)) was 90 % of control and the T/C (dose: 120.0 mg/kg/injection, schedule: Q01DX005 (ip), vehicle: Klucel (hydroxypropylcellulose) (HPC)) was 86 % of control.
For `CCCCCCCCCCCCCCCC(=O)OCC1OC(n2ccc(N)nc2=O)C(O)C1O` (configuration not stated), the T/C (dose: 0.29 mg/kg/injection, schedule: Q01DX009 (ip), vehicle: saline with Tween-80) was 104 % of control, the T/C (dose: 0.44 mg/kg/injection, schedule: Q01DX009 (ip), vehicle: saline with Tween-80) was 104 % of control and the T/C (dose: 0.66 mg/kg/injection, schedule: Q01DX009 (ip), vehicle: saline with Tween-80) was 122 % of control. For the same molecule, the T/C (dose: 0.88 mg/kg/injection, schedule: Q01DX009 (ip), vehicle: saline with Tween-80) was 152 % of control, the T/C (dose: 1.32 mg/kg/injection, schedule: Q01DX009 (ip), vehicle: saline with Tween-80) was 166 % of control and the T/C (dose: 2.0 mg/kg/injection, schedule: Q01DX009 (ip), vehicle: saline with Tween-80) was 185 % of control. The T/C (dose: 3.0 mg/kg/injection, schedule: Q01DX009 (ip), vehicle: saline with Tween-80) was 200 % of control, the T/C (dose: 3.13 mg/kg/injection, schedule: Q04DX003 (ip), vehicle: saline with Tween-80) was 163 % of control and the T/C (dose: 6.25 mg/kg/injection, schedule: Q04DX003 (ip), vehicle: saline with Tween-80) was 181 % of control and 195 % of control. The T/C (dose: 12.5 mg/kg/injection, schedule: Q04DX003 (ip), vehicle: saline sonified) was 204 % of control, the T/C (dose: 12.5 mg/kg/injection, schedule: Q04DX003 (ip), vehicle: saline with Tween-80) was 218 % of control and 222 % of control and the T/C (dose: 15.0 mg/kg/injection, schedule: Q01DX009 (ip), vehicle: saline with Tween-80) was 221 % of control and 345 % of control. The T/C (dose: 20.0 mg/kg/injection, schedule: Q01DX001 (ip), vehicle: saline with Tween-80) was 154 % of control, the T/C (dose: 20.0 mg/kg/injection, schedule: Q01DX009 (ip), vehicle: saline with Tween-80) was 228 % of control and 538 % of control and 548 % of control and the T/C (dose: 24.0 mg/kg/injection, schedule: Q01DX009 (ip), vehicle: saline with Tween-80) was 344 % of control. The T/C [6] was 170 % of control and 539 % of control, the T/C (dose: 25.0 mg/kg/injection, schedule: Q04DX003 (ip), vehicle: saline sonified) was 250 % of control and the T/C (dose: 25.0 mg/kg/injection, schedule: Q04DX003 (ip), vehicle: saline with Tween-80) was 254 % of control. For the same molecule, the T/C (dose: 31.75 mg/kg/injection, schedule: Q04DX002 (ip), vehicle: Klucel (hydroxypropylcellulose) (HPC)) was 250 % of control and 256 % of control, the T/C (dose: 32.0 mg/kg/injection, schedule: Q04DX003 (ip), vehicle: saline with Tween-80) was 194 % of control and 264 % of control and the T/C (dose: 37.5 mg/kg/injection, schedule: Q01DX001 (ip), vehicle: saline with Tween-80) was 181 % of control. The T/C (dose: 40.0 mg/kg/injection, schedule: Q01DX001 (ip), vehicle: saline with Tween-80) was 204 % of control, the T/C (dose: 48.0 mg/kg/injection, schedule: Q04DX003 (ip), vehicle: saline with Tween-80) was 216 % of control and 350 % of control and the T/C (dose: 50.0 mg/kg/injection, schedule: Q01DX001 (ip), vehicle: Klucel (hydroxypropylcellulose) (HPC)) was 155 % of control. For the same molecule, the T/C (dose: 50.0 mg/kg/injection, schedule: Q04DX003 (ip), vehicle: saline sonified) was 250 % of control, the T/C (dose: 60.0 mg/kg/injection, schedule: Q03DX003 (ip), vehicle: saline with Tween-80) was 536 % of control and the T/C (dose: 62.5 mg/kg/injection, schedule: Q04DX002 (ip), vehicle: Klucel (hydroxypropylcellulose) (HPC)) was 263 % of control and 275 % of control. The T/C (dose: 70.0 mg/kg/injection, schedule: Q03DX003 (ip), vehicle: saline with Tween-80) was 536 % of control, the T/C (dose: 72.0 mg/kg/injection, schedule: Q04DX003 (ip), vehicle: saline with Tween-80) was 213 % of control and 511 % of control and the T/C (dose: 75.0 mg/kg/injection, schedule: Q01DX001 (ip), vehicle: saline with Tween-80) was 181 % of control. For the same molecule, the T/C (dose: 80.0 mg/kg/injection, schedule: Q03DX003 (ip), vehicle: saline with Tween-80) was 459 % of control, the T/C (dose: 90.0 mg/kg/injection, schedule: Q03DX003 (ip), vehicle: saline with Tween-80) was 378 % of control and the T/C (dose: 125.0 mg/kg/injection, schedule: Q04DX002 (ip), vehicle: Klucel (hydroxypropylcellulose) (HPC)) was 263 % of control and 275 % of control.
With `CN=C(N/N=C(C)\C=N\NC(=NC)N(C)C)N(C)C` the T/C [4] was 109 % of control, the T/C [5] was 105 % of control and the T/C (dose: 200.0 mg/kg/injection, schedule: Q01DX005 (ip), vehicle: saline with Tween-80) was 105 % of control.
With `CN(C)c1ccc(-c2c3ccccc3nc3ccccc23)cc1` the T/C (dose: 12.5 mg/kg/injection, schedule: Q01DX009 (ip), vehicle: saline with Tween-80) was 90 % of control, the T/C [6] was 90 % of control and the T/C (dose: 50.0 mg/kg/injection, schedule: Q01DX009 (ip), vehicle: saline with Tween-80) was 100 % of control.
For `Cc1n[nH]c(=O)[nH]c1=O`, the T/C [7] was 100 % of control, the T/C [8] was 100 % of control and the T/C [9] was 90 % of control.
In the case of `c1ccc2c(c1)C1CCC2c2ccccc21`, the T/C (dose: 100.0 mg/kg/injection, schedule: Q01DX009 (ip), vehicle: saline with Tween-80) is reported as 118 % of control, the T/C (dose: 200.0 mg/kg/injection, schedule: Q01DX009 (ip), vehicle: saline with Tween-80) is reported as 104 % of control and the T/C (dose: 400.0 mg/kg/injection, schedule: Q01DX009 (ip), vehicle: saline with Tween-80) is reported as 118 % of control.
For `FC(F)(F)C1=C(C(F)(F)F)OP23(OCCC(CO2)O3)O1` (configuration not stated), the T/C (dose: 50.0 mg/kg/injection, schedule: Q04DX003 (ip), vehicle: Klucel (hydroxypropylcellulose) (HPC)) was 105 % of control, the T/C [7] was 108 % of control and the T/C [8] was 99 % of control. The T/C [9] was 103 % of control.

Reference: PubChem BioAssay AID330 (DTP/NCI, 2004)
